Measurements published in patent publication US10894785B2, “Piperidine derivatives for use in the treatment of pancreatic cancer” (CENTRE HOSPITALIER UNIVERSITAIRE VAUDOIS CHUV, priority 2016, dated 2021).
pIC50: −log10 of the molar value.

Columns and labels:
[1] = test system: pancreatic ductal adenocarcinoma (Panc-1); assay: Anti-tumor activity on Panc-1: cell viability by sulforhodamine or MTT assay; assay type: cell-based; conditions: Homo sapiens, Panc-1 cells, 96 hours treatment, 0.001-1000 nM
Protocol: The compounds according to the present invention were evaluated for their anti-tumor activities on pancreatic ductal adenocarcinoma (Panc-1). To this end, 0.5×10^6 human malignant cells were treated with various concentrations (0.001-1000 nM) for 96 hours of FK866 or the compounds according to the present invention. Subsequently cell viability was determined using either sulforhodamine assays as described in Caffa I, et al. (Oncotarget. 2015 May 20; 6(14):11820-32) or MTT assays. Sulforhodamine B is a dye able that binds to cellular proteins. […] For MTT assays, human malignant cells were plated in triplicate on 96-well plates and treated as mentioned above. After 96 hours of incubation, 15 μL of dye solution was added to each well and cells were incubated for an additional 4 hours. Stop solution (100 μL/well) was added for 1 hour and the absorbance was read at 570 nm on a spectrophotometer. To confirm whether the cytotoxicity exerted by these compounds involves programmed cell death, drug-induced cell death was evaluated using annexin V and 7AAD double staining as described by the manufacturer for assessing apoptosis or autophagic-cell death using a Beckman Coulter Cytomics Gallios flow cytometer. Dead cells were identified as annexinV+ and/or 7AAD+. GraphPad Prism version 7.00 (GraphPad Software, San Diego, Calif.) was used for IC50 calculation.

[2] = Pharmacokinetics after intraperitoneal administration in female SCID mice (plasma, LC-MS/MS, non compartmental analysis); assay type: in vivo; conditions: 20 mg/kg IP
Protocol: The pharmacokinetics parameters of FK866, FE1199, VAL22-2 and MPM07 were determined following intraperitoneal administration (IP) in female SCID mice.
• SCID (Severe Combined ImmunoDeficiency) mice female total 144 • 25 mM in DMSO (dimethylsulfoxyde) of each test drug • Saline solution (0.9%)
Test drugs were dissolved in saline solution at 20 mg/ml. All dosing solutions were controlled by HPLC (High-Performance Liquid Chromatography) analysis. Mouse weight is estimated around 20 g.
Three mice per time point were used in each group.
Blood samples were collected on citrate at 10 min, 30 min, 1 h, 2 h, 4 h, 6 h, 8 h and 24 hours after drug administration. Following centrifugation, resulting plasma was stored at […] pending bioanalysis. Samples were analyzed by LC-MS/MS (Liquid chromatography tandem-mass spectrometry); the lower limit of quantification achieved was between 3 and 12 nM depending on drug. Non compartmental pharmacokinetic analysis was performed on plasma concentration data.

Structure (SMILES) | pIC50 [1] | other results
N#C/N=C(\NCCCCC1CCN(C(=O)c2ccco2)CC1)Nc1ccc(F)nc1 [FEI-170, (E)-2-Cyano-1-(6-fluoropyridin-3-yl)-3-(4-(1-(furan-2-carbonyl)piperidin-4-yl)butyl)guanidine] | 7.74 | –
O=C(/C=C/c1cccnc1)NC/C=C/CC1CCN(C(=O)c2cccs2)CC1 [FEI-85, (E)-3-(Pyridin-3-yl)-N-((E)-4-(1-(thiophene-2-carbonyl)piperidin-4-yl)but-2-en-1-yl)acrylamide] | 8.70 | –
N#C/N=C(\NC/C=C/CCC1CCN(C(=O)c2ccccc2)CC1)Nc1cccnc1 [FEI-194, (E)-1-((E)-5-(1-Benzoylpiperidin-4-yl)pent-2-en-1-yl)-2-cyano-3-(pyridin-3-yl)guanidine] | 8.30 | –
O=C(/C=C/c1cccnc1)NCCCCC1CCN(C(=O)c2ccno2)CC1 [FEI-74, (E)-N-(4-(1-(Isoxazole-5-carbonyl)piperidin-4-yl)butyl)-3-(pyridin-3-yl)acrylamide] | 8.30 | –
O=C(/C=C/c1cccnc1F)NCCCCC1CCN(C(=O)c2ccccc2)CC1 [VAL22-2, (E)-N-(4-(1-benzoylpiperidin-4-yl)butyl)-3-(2-fluoropyridin-3-yl)acrylamide] | – | CL ([2]; CL calculated as dose/AUC): 23.6 mL/h; Percentage of extrapolated AUC from T6 h to infinity ([2]; plasma, relative to AUC0-inf): 1.4%; T1/2α ([2]; plasma, t½α (0 -> 6 h)): 27.6 min; T1/2β ([2]; plasma, t½β (6 -> 24 h)): 515 min; half-lives in the second phase (6 h→24 h) compared with FK866 ([2]; plasma, versus FK866): improved and longer half-lives; Cmax ([2]; mouse, plasma): 16900 ng/mL; Tmax ([2]; mouse, plasma): 10 min; AUC(0-inf) ([2]; mouse, plasma, log-trapezoidal rule, extrapolated to infinity): 8470 ng·h/mL; AUC(0-t) ([2]; mouse, plasma, read-out: AUC0-8 h): 8400 ng·h/mL
N#C/N=C(\NCCCCC1CCN(C(=O)c2ccco2)CC1)Nc1ccncc1 [FEI-158, (E)-2-Cyano-1-(4-(1-(furan-2-carbonyl)piperidin-4-yl)butyl)-3-(pyridin-4-yl)guanidine] | 8.17 | –
N#C/N=C(\NCCCCCC1CCN(C(=O)c2ccco2)CC1)Nc1ccncc1 [FEI-191, (E)-2-Cyano-1-(5-(1-(furan-2-carbonyl)piperidin-4-yl)pentyl)-3-(pyridin-4-yl)guanidine] | 8.72 | –
COc1cccc(OC)c1C(=O)N1CCC(CCCCNC(=O)/C=C/c2cccnc2)CC1 [FEI-58, (E)-N-(4-(1-(2,6-Dimethoxybenzoyl)piperidin-4-yl)butyl)-3-(pyridin-3-yl)acrylamide] | 9.22 | –
COc1ccoc1C(=O)N1CCC(CCCCNC(=O)/C=C/c2cccnc2)CC1 [FEI-71, (E)-N-(4-(1-(3-Methoxyfuran-2-carbonyl)piperidin-4-yl)butyl)-3-(pyridin-3-yl)acrylamide] | 8.15 | –
COc1cc(OC)c(C(=O)N2CCC(CCCCNC(=O)/C=C/c3cccnc3)CC2)c(OC)c1 [FEI-62, (E)-3-(Pyridin-3-yl)-N-(4-(1-(2,4,6-trimethoxybenzoyl)piperidin-4-yl)butyl)acrylamide] | 9.00 | –
O=C(/C=C/c1cccnc1)NC/C=C/CC1CCN(C(=O)c2ccccc2)CC1 [FEI-80, (E)-N-((E)-4-(1-Benzoylpiperidin-4-yl)but-2-en-1-yl)-3-(pyridin-3-yl)acrylamide] | 8.05 | –
COc1cccc(OC)c1C(=O)N1CCC(C/C=C/CNC(=O)/C=C/c2cccnc2)CC1 [FEI-81, (E)-N-((E)-4-(1-(2,6-Dimethoxybenzoyl)piperidin-4-yl)but-2-en-1-yl)-3-(pyridin-3-yl)acrylamide] | 8.64 | –
COc1ccc(C(=O)N2CCC(CCCCNC(=O)/C=C/c3cccnc3)CC2)c(OC)c1 [FEI-56, (E)-N-(4-(1-(2,4-Dimethoxybenzoyl)piperidin-4-yl)butyl)-3-(pyridin-3-yl)acrylamide] | 8.52 | –
N#C/N=C(\NCCCCCC1CCN(C(=O)c2ccccc2)CC1)Nc1ccncc1 [FEI-190, (E)-1-(5-(1-Benzoylpiperidin-4-yl)pentyl)-2-cyano-3-(pyridin-4-yl)guanidine] | 8.59 | –
N#C/N=C(\NCCCCCC1CCN(C(=O)c2cccs2)CC1)Nc1ccncc1 [FEI-192, (E)-2-Cyano-1-(pyridin-4-yl)-3-(5-(1-(thiophene-2-carbonyl)piperidin-4-yl)pentyl)guanidine] | 8.64 | –
N#C/N=C(\NCCCCC1CCN(C(=O)c2cccs2)CC1)Nc1ccc(F)nc1 [FEI-171, (E)-2-Cyano-1-(6-fluoropyridin-3-yl)-3-(4-(1-(thiophene-2-carbonyl)piperidin-4-yl)butyl)guanidine] | 7.92 | –
N#C/N=C(\NCCCCC1CCN(C(=O)c2ccccc2)CC1)Nc1ccncc1 [FEI-154, (E)-1-(4-(1-Benzoylpiperidin-4-yl)butyl)-2-cyano-3-(pyridin-4-yl)guanidine] | 8.41 | –
COc1cc(C=O)cc(OC)c1C(=O)N1CCC(CCCCNC(=O)/C=C/c2cccnc2)CC1 [FEI-75, (E)-N-(4-(1-(4-Formyl-2,6-dimethoxybenzoyl)piperidin-4-yl)butyl)-3-(pyridin-3-yl)acrylamide] | 8.70 | –
N#C/N=C(\NC/C=C/CCC1CCN(C(=O)c2ccco2)CC1)Nc1cccnc1 [FEI-195, (E)-2-Cyano-1-((E)-5-(1-(furan-2-carbonyl)piperidin-4-yl)pent-2-en-1-yl)-3-(pyridin-3-yl)guanidine] | 8.34 | –
COc1cc(OC)c(C(=O)N2CCC(C/C=C/CNC(=O)/C=C/c3cccnc3)CC2)c(OC)c1 [FEI-82, (E)-3-(Pyridin-3-yl)-N-((E)-4-(1-(2,4,6-trimethoxybenzoyl)piperidin-4-yl)but-2-en-1-yl)acrylamide] | 9.40 | –
COc1cccc(OC)c1C(=O)N1CCC(CCCCCN/C(=N\C#N)Nc2ccncc2)CC1 [FEI-193, (E)-2-Cyano-1-(5-(1-(2,6-dimethoxybenzoyl)piperidin-4-yl)pentyl)-3-(pyridin-4-yl)guanidine] | 8.32 | –

Second part, led by results:

pIC50 [1] | Structure (SMILES) | other results
8.09 | COc1cccc(OC)c1C(=O)N1CCC(CCCCNC(=O)Nc2ccncc2)CC1 [FEI-209, 1-(4-(1-(2,6-Dimethoxybenzoyl)piperidin-4-yl)butyl)-3-(pyridin-4-yl)urea] | –
8.23 | N#C/N=C(\NC/C=C/CCC1CCN(C(=O)c2cccs2)CC1)Nc1cccnc1 [FEI-196, (E)-2-Cyano-1-(pyridin-3-yl)-3-((E)-5-(1-(thiophene-2-carbonyl)piperidin-4-yl)pent-2-en-1-yl)guanidine] | –
7.85 | O=C(/C=C/c1ccc(F)nc1F)NCCCCC1CCN(C(=O)c2ccccc2)CC1 [PER-201, (E)-N-(4-(1-benzoylpiperidin-4-yl)butyl)-3-(2,6-difluoropyridin-3-yl)acrylamide] | –
8.70 | COc1cccc(OC)c1C(=O)N1CCC(CCCCNC(=O)/C=C/c2ccc(F)nc2F)CC1 [MPM-09] | –
8.30 | O=C(/C=C/c1ccc(F)nc1F)NCCCCC1CCN(C(=O)c2cccs2)CC1 [PER-202] | –
7.81 | COc1cc(C=O)cc(OC)c1C(=O)N1CCC(CCCCNC(=O)/C=C/c2cccnc2F)CC1 [MPM-13] | –
8.12 | CCCn1cc(C=O)c(C(=O)N2CCC(CCCCNC(=O)/C=C/c3cccnc3F)CC2)c1C [MPM-14, (E)-3-(2-fluoropyridin-3-yl)-N-(4-(1-(4-formyl-2-methyl-1-propyl-1H-pyrrole-3-carbonyl)piperidin-4-yl)butyl)acrylamide] | –
8.62 | N#C/N=C(\NC/C=C/CCC1CCN(C(=O)c2cccs2)CC1)Nc1ccncc1 [FEI-200, (E)-2-Cyano-1-(pyridin-4-yl)-3-((E)-5-(1-(thiophene-2-carbonyl)piperidin-4-yl)pent-2-en-1-yl)guanidine] | –
8.22 | COc1cccc(OC)c1C(=O)N1CCC(CCCCNC(=O)/C=C/c2cccnc2F)CC1 [MPM-08] | –
